For data set [1] the following is noted: cited from earlier work; for Vd Observed: Table 2, 70-kg patient assumed; for Volume of Distribution (Ref.) category in brackets: class of the reference value.
For data set [2], the system named is plasma proteins. The note with it: cited from earlier work; for Protein Binding Observed: Table 3.
The nature of data set [3]: IAM chromatography membrane affinity (κ′) on esterIAM.PS C10/C3 column. Particulars: for Log PS (log κ′ on esterIAM.PS C10/C3): 15% acetonitrile in 0.01M PBS buffer (pH 7.4) mobile phase.
Data set [4] is described as follows: IAM chromatography membrane affinity (κ′) on esterIAM.PE C10/C3 column. The note with it: for LOG PE (log κ′ on esterIAM.PE C10/C3): 15% acetonitrile in 0.01M PBS buffer (pH 7.4) mobile phase.
For data set [5] the following is noted: cited from earlier work; for Clearance (Ref.): Table 5, Study 1, category; for total body clearance Observed: Table 4.
Data set [6] has as its system plasma proteins. The data set can be described thus: Prediction of protein binding from IAM membrane affinity standard curve. Also noted: species or system human. Particulars: Table 3; predicted using IAM k′ data (FIG. 20).
Data set [7] can be described thus: Prediction of clearance from IAM membrane affinity standard curve. Also noted: species or system human. Particulars: Table 4; predicted using IAM k′ data.
Data set [8] can be described thus: Prediction of volume of distribution from IAM membrane affinity standard curve. The note with it: Table 2; predicted using IAM k′ data (FIG. 19).
[9] abbreviates: known ADME properties of the parent compound.
[10] abbreviates: column volumes of mobile phase needed to elute.

One may read the Vd as the apparent volume that relates the amount in the body to the concentration in plasma or blood.

Read-outs that look alike come from different tables or passages of the source.

Turning to `CNC(=C[N+](=O)[O-])NCCSCc1ccc(CN(C)C)o1` [Ranitidine], the “Vd Observed” value in data set [1] is listed as 91 L. Also, the “Protein Binding Observed” value in the data set with plasma proteins [2] is recorded as 15. Further, in data set [3], the “Log PS (log κ′ on esterIAM.PS C10/C3)” value was 0.83. The “LOG PE (log κ′ on esterIAM.PE C10/C3)” value in data set [4] turned out to be 0.15.
With `O=C1CN=C(c2ccccc2Cl)c2cc([N+](=O)[O-])ccc2N1` [clonazepam], the “Volume of Distribution (L) (Ref.)” value in data set [1] (Table 5, Study 1) is on record as 210 L. In data set [1] (setting [9]), the Vd is reported as 224 L. Moreover, the “% Protein Binding (Ref.)” value with plasma proteins [2] (Table 5, Study 1) is listed as 86%. In the data set with plasma proteins [2] (setting [9]), the Protein binding is reported as 86%. Also, in data set [5], the “Clearance (Ref.)” value was “low”. For the same compound, the CL in data set [5] (setting [9]) is 0.109 L/min.
`CCCN(CCC)CCc1cccc2c1CC(=O)N2` [Ropinirole]: in the data set with plasma proteins [6], the “Protein Binding Predicted” value is on record as 40-90. Moreover, the “total body clearance Predicted” value in data set [7] was “HIGH > 0.327 (HIGH > 0.327)”. Also, the “Vd Observed” value in data set [1] is listed as 525 L. Also, the “Protein Binding Observed” value in the data set with plasma proteins [2] is recorded as 68. In data set [8], the “Vd Predicted” value was “VERY HIGH (>250 L) (VERY HIGH (>250 L))”.
As to `CNCCC(Oc1ccc(C(F)(F)F)cc1)c1ccccc1` (stereo not shown) [fluoxetine], in data set [1] (Table 6, Study 2), the “Volume of Distribution (L) (Ref.)” value is given as 2450 L. Also, in the data set with plasma proteins [2] (Table 6, Study 2), the “% Protein Binding (Ref.)” value was 94%.
As to `O=C1Nc2ccc(Cl)cc2C(c2ccccc2Cl)=NC1O` (stereo not shown) [lorazepam], in data set [1] (Table 5, Study 1), the “Volume of Distribution (L) (Ref.)” value is listed as 91 L and the “Volume of Distribution (Ref.) category in brackets” value is reported as “(high) (“high” (70-250 L))”. In addition, in data set [5], the “Clearance (Ref.)” value is on record as “low”.
For the compound `Fc1ccc([C@@H]2CCNC[C@H]2COc2ccc3c(c2)OCO3)cc1` [Paroxetine], the “Protein Binding Predicted” value in the data set with plasma proteins [6] is “Greater than 90”. Further, in data set [7], the “total body clearance Predicted” value is on record as “HIGH > 0.327 (HIGH > 0.327)”. In data set [1], the “Vd Observed” value was 1190 L. Moreover, the “Protein Binding Observed” value with plasma proteins [2] is listed as 95. In addition, the “total body clearance Observed” value in data set [5] is listed as 0.602. Besides, the “Log PS (log κ′ on esterIAM.PS C10/C3)” value in data set [3] was 3.37. In addition, the “LOG PE (log κ′ on esterIAM.PE C10/C3)” value in data set [4] was determined as 2.33.
Take `COc1ccc([C@@H]2Sc3ccccc3N(CCN(C)C)C(=O)[C@@H]2OC(C)=O)cc1` [Diltiazem]: the “total body clearance Predicted” value in data set [7] is on record as “HIGH > 0.327 (HIGH > 0.327)”. In data set [1], the “Vd Observed” value is 217 L. For the same compound, in the data set with plasma proteins [2], the “Protein Binding Observed” value is listed as 78. Further, the “total body clearance Observed” value in data set [5] was 0.84. Further, the “Log PS (log κ′ on esterIAM.PS C10/C3)” value in data set [3] amounted to 2.54. The “LOG PE (log κ′ on esterIAM.PE C10/C3)” value in data set [4] came to 1.87.
For `CCCC(=O)Nc1ccc(OCC(O)CNC(C)C)c(C(C)=O)c1` (stereo not shown) [acebutolol], in data set [1] (Table 6, Study 2), the “Volume of Distribution (L) (Ref.)” value is given as 84 L.
Consider `Nc1nc2c(ncn2COCCO)c(=O)[nH]1` [Acyclovir], for which, in data set [4], the “LOG PE (log κ′ on esterIAM.PE C10/C3)” value is −1.17.
In the case of `O=C(NCC1CCCCN1)c1cc(OCC(F)(F)F)ccc1OCC(F)(F)F` (stereo not shown) [flucainide], the “Volume of Distribution (L) (Ref.)” value in data set [1] (Table 6, Study 2) is 343 L. In addition, the “% Protein Binding (Ref.)” value in the data set with plasma proteins [2] (Table 6, Study 2) is reported as 61%.
For `CC(C)(C)NCC(O)c1cc(O)cc(O)c1` (stereo not shown) [terbutaline], in data set [1] (Table 6, Study 2), the “Volume of Distribution (L) (Ref.)” value is reported as 126 L. The “% Protein Binding (Ref.)” value in the data set on plasma proteins [2] (Table 6, Study 2) is recorded as 20%.
Regarding `CC(CCc1ccccc1)NCC(O)c1ccc(O)c(C(N)=O)c1` (stereo not shown) [labetalol], the “% Protein Binding (Ref.)” value in the data set on plasma proteins [2] (Table 6, Study 2) is given as 50%.
In the case of `COc1cc(Cc2cnc(N)nc2N)cc(OC)c1OC` [trimethoprim], the “κ′ on the esterIAM.PS C10/C3 column” value in data set [3] (setting [10]) stood at 10. For the same compound, the “affinity for the esterIAM.PS C10/C3 column compared to the esterIAM.PE column” value in data set [3] (ratio of κ′ PS / κ′ PE) is recorded as roughly 5 times. For the same compound, the “κ′ on the esterIAM.PE C10/C3 column” value in data set [4] (setting [10]) is recorded as 2.
Regarding `Nc1nnc(-c2cccc(Cl)c2Cl)c(N)n1` [Lamotrigine], the “total body clearance Predicted” value in data set [7] is recorded as “LOW < 0.327 (LOW < 0.327)”. For the same compound, the “Vd Observed” value in data set [1] was 91 L. Moreover, in the data set with plasma proteins [2], the “Protein Binding Observed” value is 55. Besides, in data set [3], the “Log PS (log κ′ on esterIAM.PS C10/C3)” value was determined as 0.96.
Turning to `COCCc1ccc(OCC(O)CNC(C)C)cc1` (stereo not shown) [metoprolol], the “Volume of Distribution (L) (Ref.)” value in data set [1] (Table 6, Study 2) is 294 L.
For `CC(C)NCC(O)COc1cccc2ccccc12` (stereo not shown) [propranolol], in data set [1] (Table 6, Study 2), the “Volume of Distribution (L) (Ref.)” value is recorded as 301 L.
Take `O=C1CN=C(c2ccccc2)c2cc([N+](=O)[O-])ccc2N1` [nitrazepam]: in data set [1] (Table 5, Study 1), the “Volume of Distribution (L) (Ref.)” value was 133 L and the “Volume of Distribution (Ref.) category in brackets” value was “(high) (“high” (70-250 L))”. In data set [5], the “Clearance (Ref.)” value is on record as “low”.
For `CC(C)(C)NCC(O)COc1cccc2c1CC(O)C(O)C2` (stereo not shown) [nadolol], the “Volume of Distribution (L) (Ref.)” value in data set [1] (Table 6, Study 2) is 133 L. The “% Protein Binding (Ref.)” value in the data set with plasma proteins [2] (Table 6, Study 2) was 20%.
Regarding `Cc1cccc(C)c1OCC(C)N` (stereo not shown) [mexiletine], in data set [1] (Table 6, Study 2), the “Volume of Distribution (L) (Ref.)” value was 343 L. Besides, the “% Protein Binding (Ref.)” value with plasma proteins [2] (Table 6, Study 2) is on record as 63%.
For `CCCCC1C(=O)N(c2ccccc2)N(c2ccccc2)C1=O` [phenylbutazone], the “Volume of Distribution (L) (Ref.)” value in data set [1] (Table 6, Study 2) was 7 L.
`CN1C(=O)CN=C(c2ccccc2F)c2cc([N+](=O)[O-])ccc21` [flunitrazepam]: the “% Protein Binding (Ref.)” value with plasma proteins [2] (Table 5, Study 1) is on record as 77%.

Values taken from patent publication US20030130799A1, “Structure/properties correlation with membrane affinity profile” (priority 2001, published 2003).
